# Values of other authors as cited in patent publication US20120003311A9, “METHOD FOR CONTROLLED RELEASE OF AN ACID-UNSTABLE PHYSIOLOGICALLY ACTIVE SUBSTANCE” (EISAI R&D MANAGEMENT CO., LTD., priority 2004, published 2012).
# Legend:
# [1] = descending colon vs jejunum
absorption rate in the descending colon as percentage of that of the jejunum [1] [%],Compound,half-life at pH 7 [hours]
–,COc1ccnc(C[S+]([O-])c2nc3cc(OC(F)F)ccc3[nH]2)c1OC (centres unmarked) [pantoprazole],39
≤ 20,COCCCOc1ccnc(C[S+]([O-])c2nc3ccccc3[nH]2)c1C (centres unmarked) [rabeprazole sodium],–
